This note sets out measurements from patent publication US8106071B2, “Compositions for treating hyperproliferative vascular disorders and cancers” (Biobud Co., Ltd., priority 2007, dated 2012).

The test system of assay [1] is NCI-H460 (lung cancer cell line). Briefly: Cytotoxicity to tumor cells (WST-1), NCI-H460. In kind it is cell-based. How it is done: (§1) To verify whether the compounds of this invention could be used as anticancer agents, their cytotoxicity against tumor cells were examined. NCI-H460 (lung cancer cell line, ATCC, USA) and MDA-MB 435S (breast cancer cell line, ATCC, USA) were used. The cancer cell lines were plated in 100 μl of DMEM (Dulbelcco's Modified Eagle Medium) containing 10% FBS (fetal bovine serum) in 96-well plates at 5×10^3 cells/well and cultured for 24 hr at 37° C. under 10% CO2 atmosphere. After change of medium with 100 μl of DMEM containing 5% FBS, cells were treated with the indicated concentration of the compounds in DMSO. The final concentration of DMSO in medium was adjusted to 1%. Following 48-hr treatment, medium was changed with a fresh 5% FBS DMEM and 10 μl/well of premix WST-1 (Takara, Japan) was added for analyzing cell proliferation, followed by 2-hr incubation. Using a ELISA microplate reader, the OD (optical density) values at 450 nm were measured. Compared with no-treatment control, the compounds of this invention were evaluated in terms of their cytotoxicity to cancer cell lines.
(In general: Formazan colour is commonly taken as a measure of viable cells.)

In assay [2] the test system is MDA-MB 435S (breast cancer cell line). Briefly: Cytotoxicity to tumor cells (WST-1), MDA-MB 435S. As to conditions: 48-hr treatment. The assay is classed as cell-based. As for the experimental part:
as §1

The subject of assay [3] is Human vascular smooth muscle cells (SMC). Put plainly: Inhibition of vascular smooth muscle cell proliferation (PDGF-stimulated, WST-1). The assay is classed as cell-based. Particulars: 5 ng/ml PDGF, 48-hr treatment. How it is done: Human vascular smooth muscle cells (SMC, Bio-whittaker, USA) were plated in 100 μl of DMEM (Dulbelcco's Modified Eagle Medium) containing 10% FBS (fetal bovine serum) in 96-well plates at 5×10^3 cells/well and cultured for 24 hr at 37° C. under 10% CO2 atmosphere. Afterwards, cells were starved in 100 μl of DMEM containing 0.2% FBS for 72 hr. Then, cells were incubated in 100 μl of DMEM containing 5% FBS supplemented with 5 ng/ml PDGF (platelet derived growth factor, ProSpec, Israel) and then treated with indicated concentrations of chemicals in DMSO synthesized in Examples. The final concentration of DMSO was adjusted to 1%. After 48-hr treatment, medium was changed with a fresh 5% FBS DMEM and 10 μl/well of premix WST-1 (Takara, Japan) was added for analyzing cell proliferation, followed by 2-hr incubation. Using a ELISA microplate reader, the OD (optical density) values at 450 nm were measured. Compared with no-treatment control, the compounds of this invention were evaluated in terms of their cell proliferation activity.

Assay [4] concerns neointima thickening of balloon-injured left common carotid artery. Briefly: Inhibition of restenosis using balloon injury of carotid artery. As to conditions: Sprague-Dawley rats, intraperitoneal, 2 weeks after balloon injury.
Experimental: To examine restenosis inhibition effects of the present compounds, rat restenosis models were constructed using balloon injury of carotid artery.
Sprague-Dawley male rats with body weights of 350±30 g (12-14 week age, DaehanBiolink, Inc., Korea) were adapted to surrounding environments for one week. For each experiment, 7-10 rats were used. Rats were anesthetized by intraperitoneal administration of a mixture of ketamine (70 mg/kg) and xylazine hydrochloride (33 mg/kg) and their (left common carotid artery, CCA) and branches of internal carotid artery (ICA) and external carotid artery (ECA) were exposed by neck central compartment dissection. The proximal portion of the left common carotid artery and distal portion of the internal carotid artery were temporarily ligated with suture to block bloodstream, the distal portion of the external carotid artery was ligated. The wall of the external carotid artery between both sutures was partially dissected. 2F Fogarty balloon (Edwards Lifesciences) was inserted and the ligation of the left common carotid artery was then unraveled, followed by advancing the balloon along the direction of the ascending aorta. The balloon was inflated and pulled out at the extent that resistance was allowed at the terminal portion of the common carotid artery of the aortic arch, such that the lesion of the left common carotid artery was induced. […]
For another assay, the system named is cancer cell lines. Put plainly: Cytotoxicity to tumor cells (WST-1), cancer cell lines collectively. Particulars: cancer cell lines (NCI-H460, MDA-MB 435S) not distinguished in the sentence; read-out: IC50 against cancer cell lines. In kind it is cell-based. As for the experimental part: as §1
Setting [5] is: Homo sapiens, NCI-H460, 48-hr treatment.

`CC(=O)c1c(Nc2ccc(Br)cc2)[nH]c2cc(Br)cc(Br)c2c1=O` [BD001]: the values for the concentration for half-maximal inhibition (IC50) in assay [1] (48-hr treatment), in assay [2] and in assay [3] were 1.5 µM, 1.8 µM and 0.21 µM, respectively.
Regarding `CC(=O)c1c(Nc2ccc(Br)cc2Cl)[nH]c2c([N+](=O)[O-])cc(Cl)cc2c1=O` [BD002], the IC50 (in general, the concentration that gives 50% inhibition) in assay [1] (48-hr treatment) was determined as 0.4 µM; in assay [2], 0.3 µM.
In the same order, the values of `CC(=O)c1c(Nc2ccc(F)c(F)c2F)[nH]c2c(Cl)ccc(C)c2c1=O` [BD003] are 0.4 µM and 0.6 µM.
In the same order, the values of `CC(=O)c1c(Nc2ccc(F)c(F)c2F)[nH]c2c(F)cc(F)cc2c1=O` [BD004] are 0.85 µM and 0.9 µM.
In the case of `CC(=O)c1c(Nc2ccc(F)cc2Cl)[nH]c2c(Cl)ccc(C)c2c1=O` [BD005], the figures for the IC50 in assay [1] (48-hr treatment), in assay [2] and in assay [3] were 0.6 µM, 25 µM and 0.28 µM, respectively.
In the same order, the values of `CC(=O)c1c(Nc2ccc(C)cc2)[nH]c2c([N+](=O)[O-])cccc2c1=O` [BD006] are 1.5 µM, 1.1 µM and 0.8 µM.
In the same order, the values of `CC(=O)c1c(Nc2ccc(F)cc2)[nH]c2c(F)cc(F)cc2c1=O` [BD007] are 1.6 µM, 1.1 µM and 0.29 µM.
For `CC(=O)c1c(Nc2cccc(Cl)c2)[nH]c2c(C)cccc2c1=O` [BD008] the same measures were 7.2 µM, 6.4 µM and 1.64 µM.
`CC(=O)c1c(Nc2cccc(F)c2)[nH]c2c(Cl)ccc(F)c2c1=O` [BD009]: the concentration for half-maximal inhibition (IC50) in assay [1] (48-hr treatment) came out at 2.6 µM; in assay [2], 5.2 µM; in assay [3] it was 0.625 µM.
In the same order, the values of `CC(=O)c1c(Nc2ccc(Cl)cc2Cl)[nH]c2c(Cl)ccc([N+](=O)[O-])c2c1=O` [BD010] are 25 µM, 12 µM and 6.5 µM.
Regarding `O=C(Nc1ccc(Cl)cc1Cl)c1c(Nc2ccccc2)[nH]c2c(Cl)cc(Cl)cc2c1=O` [BD030, 6,8-dichloro-4-oxo-2-phenylamino-1,4-dihydro-quinoline-3-carboxylic acid (2,4-dichloro-phenyl)-amide], the IC50 was 1 µM in assay [1] (setting [5]); 0.3 µM in assay [2] (Homo sapiens, MDA-MB-435S); < 1 µM with cancer cell lines. In addition, the “neointima thickening compared with the non-balloon-injured right common carotid artery” value in assay [4] (histology (FIG. 1c vs FIG. 1a)) is “slightly increased neointima thickening”. The “reduced neointima thickening compared with the balloon-injured left common carotid artery” value in assay [4] (dispersed in polyoxyethylated castor oil, histology (FIG. 1c vs FIG. 1b)) is recorded as “about 80%”.
In the case of `O=C(Nc1ccc(Cl)cc1Cl)c1c(Nc2ccc(Cl)cc2Cl)[nH]c2c(Cl)cc(Cl)cc2c1=O` [BD031, 6,8-dichloro-2-(2,4-dichloro-phenylamino)-4-oxo-1,4-dihydro-quinoline-3-carboxylic acid (2,4-dichloro-phenyl)-amide], the IC50 is 0.21 µM in assay [1] (setting [5]); < 0.16 µM in assay [2] (Homo sapiens, MDA-MB-435S); < 1 µM in the assay with cancer cell lines.
As for `CCC(=O)c1c(Nc2ccc(Cl)cc2F)[nH]c2c(Cl)ccc([N+](=O)[O-])c2c1=O` [BD032], the half-maximal inhibitory concentration (IC50) in assay [1] (48-hr treatment) was 3.3 µM; in assay [2], 3.5 µM; in assay [3] it was 0.14 µM.
For `CCC(=O)c1c(Nc2cccc(Cl)c2Cl)[nH]c2c(Cl)ccc([N+](=O)[O-])c2c1=O` [BD033] the same measures were 3.2 µM, 4 µM and 0.137 µM.
In the same order, the values of `CCC(=O)c1c(Nc2ccc(F)c(F)c2)[nH]c2c(Cl)ccc([N+](=O)[O-])c2c1=O` [BD034] are 3.9 µM, 1.6 µM and 0.127 µM.
